pIC50: −log10 of the molar value. Positions of bridges follow the written chain, without caps; N, C: chain ends. Non-standard residues stand in square brackets, D forms with d. Residues, ends and D or L forms follow the SMILES beside them. Cit = NC(=O)NCCC[C@H](N)C(=O)O; Ahp(2) = CCCCC[C@H](N)C(=O)O; NHexGly = CCCCCCNCC(=O)O; Nle = CCCC[C@H](N)C(=O)O
Biological target: T1, mouse VISTA (mVISTA) (Mus musculus, UniProt Q9D659)
T1 construct: expressed in transfected cells; host or cells: Human embryonic kidney 293T cells
T1 sequence (Q9D659 33-308): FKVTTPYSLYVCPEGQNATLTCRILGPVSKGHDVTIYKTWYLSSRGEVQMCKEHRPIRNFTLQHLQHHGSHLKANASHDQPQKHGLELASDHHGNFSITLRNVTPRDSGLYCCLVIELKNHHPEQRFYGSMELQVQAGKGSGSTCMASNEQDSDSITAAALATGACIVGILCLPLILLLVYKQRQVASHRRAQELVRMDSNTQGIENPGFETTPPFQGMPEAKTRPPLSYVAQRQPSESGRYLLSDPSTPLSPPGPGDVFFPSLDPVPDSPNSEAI
Experiment: Cell-Based Binding High-Content Assay For mVISTA (HC CBA mVISTA)
Conditions: 293T cells expressing mouse VISTA; competition with biotinylated peptide (2 nM); read-out: HC CBA mVISTA IC50
Method in brief: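 This high-content binding assay uses HEK293T cells expressing murine VISTA, measuring displacement of 2 nM biotinylated peptide by fluorescent streptavidin imaging. IC50 values come from four-parameter logistic fitting.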

SMILES | pIC50
CCCCCCN1CC(=O)N[C@@H](Cc2ccc(O)cc2)C(=O)N[C@@H](CC(C)C)C(=O)N[C@@H](CC(=O)O)C(=O)N[C@@H](CCCNC(=N)N)C(=O)N[C@@H](CC(C)C)C(=O)N[C@@H](CCCCC)C(=O)N2CCC[C@H]2C(=O)N[C@@H](C(C)C)C(=O)N[C@@H](CC(=O)O)C(=O)N[C@H](C(=O)NCC(N)=O)CSCC(=O)N[C@@H](Cc2ccccc2)C(=O)N[C@@H](Cc2ccc(O)cc2)C(=O)N[C@@H](CC(=O)O)C1=O [Example 1014] ({CH2CO}-FYD[NHexGly]YLDRL[Ahp(2)]PVDCG-NH2; thioether N-14) | 7.74
CCCCCCN1CC(=O)N[C@@H](Cc2ccc(O)cc2)C(=O)N[C@@H](CCCCC)C(=O)N[C@@H](CC(=O)O)C(=O)N[C@@H](CCCNC(=N)N)C(=O)N[C@@H](CC(C)C)C(=O)N[C@@H](CCCCC)C(=O)N2CCC[C@H]2C(=O)N[C@@H](C(C)C)C(=O)N[C@@H](CC(=O)O)C(=O)N[C@H](C(=O)NCC(N)=O)CSCC(=O)N[C@@H](Cc2ccccc2)C(=O)N[C@@H](Cc2ccc(O)cc2)C(=O)N[C@@H](CC(=O)O)C1=O [Example 1015] ({CH2CO}-FYD[NHexGly]Y[Ahp(2)]DRL[Ahp(2)]PVDCG-NH2; thioether N-14) | 8.06
CCCCCCN1CC(=O)N[C@@H](Cc2ccc(O)cc2)C(=O)N[C@@H](CC(C)C)C(=O)NCC(=O)N[C@@H](CCCNC(=N)N)C(=O)N[C@@H](CC(C)C)C(=O)N[C@@H](CCCCC)C(=O)N2CCC[C@H]2C(=O)N[C@@H](C(C)C)C(=O)N[C@@H](CC(=O)O)C(=O)N[C@H](C(=O)NCC(=O)O)CSCC(=O)N[C@@H](Cc2ccccc2)C(=O)N[C@@H](Cc2ccc(O)cc2)C(=O)N[C@@H](CC(=O)O)C1=O [Example 1016] ({CH2CO}-FYD[NHexGly]YLGRL[Ahp(2)]PVDCG-OH; thioether N-14) | 7.68
CCCCCCN1CC(=O)N[C@@H](Cc2ccc(O)cc2)C(=O)N[C@@H](CCCC)C(=O)NCC(=O)N[C@@H](CCCNC(=N)N)C(=O)N[C@@H](CC(C)C)C(=O)N[C@@H](CCCCC)C(=O)N2CCC[C@H]2C(=O)N[C@@H](C(C)C)C(=O)N[C@@H](CC(=O)O)C(=O)N[C@H](C(=O)NCC(N)=O)CSCC(=O)N[C@@H](Cc2ccccc2)C(=O)N[C@@H](Cc2ccc(O)cc2)C(=O)N[C@@H](CC(=O)O)C1=O [Example 1017] ({CH2CO}-FYD[NHexGly]Y[Nle]GRL[Ahp(2)]PVDCG-NH2; thioether N-14) | 7.47
CCCCCCN1CC(=O)N[C@@H](Cc2ccc(O)cc2)C(=O)N[C@@H](C(C)C)C(=O)NCC(=O)N[C@@H](CCCNC(=N)N)C(=O)N[C@@H](CC(C)C)C(=O)N[C@@H](CCCCC)C(=O)N2CCC[C@H]2C(=O)N[C@@H](C(C)C)C(=O)N[C@@H](CC(=O)O)C(=O)N[C@H](C(=O)NCC(=O)O)CSCC(=O)N[C@@H](Cc2ccccc2)C(=O)N[C@@H](Cc2ccc(O)cc2)C(=O)N[C@@H](CC(=O)O)C1=O [Example 1018] ({CH2CO}-FYD[NHexGly]YVGRL[Ahp(2)]PVDCG-OH; thioether N-14) | 7.47
CCCCCCN1CC(=O)N[C@@H](Cc2ccc(O)cc2)C(=O)N[C@@H](CCCC)C(=O)N[C@@H](CC(N)=O)C(=O)N[C@@H](CCCNC(N)=O)C(=O)N[C@@H](CC(C)C)C(=O)N[C@@H](CCCCC)C(=O)N2CCC[C@H]2C(=O)N[C@@H](C(C)C)C(=O)N[C@@H](CC(=O)O)C(=O)N[C@H](C(=O)NCC(=O)O)CSCC(=O)N[C@@H](Cc2ccccc2)C(=O)N[C@@H](Cc2ccc(O)cc2)C(=O)N[C@@H](CC(=O)O)C1=O [Example 1019] ({CH2CO}-FYD[NHexGly]Y[Nle]N[Cit]L[Ahp(2)]PVDCG-OH; thioether N-14) | 8.10
CCCCCCN1CC(=O)N[C@@H](Cc2ccc(O)cc2)C(=O)N[C@@H](CCCC)C(=O)N[C@@H](CC(N)=O)C(=O)N[C@@H](CCCNC(=N)N)C(=O)N[C@@H](CC(C)C)C(=O)N[C@@H](CCCCC)C(=O)N2CCC[C@H]2C(=O)N[C@@H](C(C)C)C(=O)N[C@@H](CC(=O)O)C(=O)N[C@H](C(=O)NCC(=O)O)CSCC(=O)N[C@@H](Cc2ccccc2)C(=O)N[C@@H](Cc2ccc(O)cc2)C(=O)N[C@@H](CC(=O)O)C1=O [Example 1020] ({CH2CO}-FYD[NHexGly]Y[Nle]NRL[Ahp(2)]PVDCG-OH; thioether N-14) | 7.65
CCCCCCN1CC(=O)N[C@@H](Cc2ccc(O)cc2)C(=O)N[C@@H](CCCC)C(=O)N[C@@H](CC(=O)O)C(=O)N[C@@H](CCCNC(=N)N)C(=O)N[C@@H](CC(C)C)C(=O)N[C@@H](CCCCC)C(=O)N2CCC[C@H]2C(=O)N[C@@H](C(C)C)C(=O)N[C@@H](CCCCC)C(=O)N[C@H](C(=O)NCC(=O)O)CSCC(=O)N[C@@H](Cc2ccccc2)C(=O)N[C@@H](Cc2ccc(O)cc2)C(=O)N[C@@H](CC(=O)O)C1=O [Example 1021] ({CH2CO}-FYD[NHexGly]Y[Nle]DRL[Ahp(2)]PV[Ahp(2)]CG-OH; thioether N-14) | 7.49
CCCCCCN1CC(=O)N[C@@H](Cc2ccc(O)cc2)C(=O)N[C@@H](CCCC)C(=O)NCC(=O)N[C@@H](CCCNC(=N)N)C(=O)N[C@@H](CC(C)C)C(=O)N[C@@H](CCCCC)C(=O)N2CCC[C@H]2C(=O)N[C@@H](C(C)C)C(=O)N[C@@H](CCC(=O)O)C(=O)N[C@H](C(=O)NCC(=O)O)CSCC(=O)N[C@@H](Cc2ccccc2)C(=O)N[C@@H](Cc2ccc(O)cc2)C(=O)N[C@@H](CC(=O)O)C1=O [Example 1022] ({CH2CO}-FYD[NHexGly]Y[Nle]GRL[Ahp(2)]PVECG-OH; thioether N-14) | 7.38
CCCCCCN1CC(=O)N[C@@H](Cc2ccc(O)cc2)C(=O)N[C@@H](CCCC)C(=O)NCC(=O)N[C@@H](CCCNC(=N)N)C(=O)N[C@@H](CC(C)C)C(=O)N[C@@H](CCCCC)C(=O)N2CCC[C@H]2C(=O)N[C@@H](C(C)C)C(=O)NCC(=O)N[C@H](C(=O)NCC(=O)O)CSCC(=O)N[C@@H](Cc2ccccc2)C(=O)N[C@@H](Cc2ccc(O)cc2)C(=O)N[C@@H](CC(=O)O)C1=O [Example 1023] ({CH2CO}-FYD[NHexGly]Y[Nle]GRL[Ahp(2)]PVGCG-OH; thioether N-14) | 7.51
CCCCCCN1CC(=O)N[C@@H](Cc2ccc(O)cc2)C(=O)N[C@@H](CCCC)C(=O)N[C@@H](CC(=O)O)C(=O)N[C@@H](CCCNC(=N)N)C(=O)N[C@@H](CC(C)C)C(=O)N[C@@H](CCCCC)C(=O)N2CCC[C@H]2C(=O)N[C@@H](C(C)C)C(=O)NCC(=O)N[C@H](C(=O)NCC(=O)O)CSCC(=O)N[C@@H](Cc2ccccc2)C(=O)N[C@@H](Cc2ccc(O)cc2)C(=O)N[C@@H](CC(=O)O)C1=O [Example 1024] ({CH2CO}-FYD[NHexGly]Y[Nle]DRL[Ahp(2)]PVGCG-OH; thioether N-14) | 7.87
CCCCCCN1CC(=O)N[C@@H](Cc2ccc(O)cc2)C(=O)N[C@@H](CCCC)C(=O)N[C@@H](CC(=O)O)C(=O)N[C@@H](CCCNC(=N)N)C(=O)N[C@@H](CC(C)C)C(=O)N[C@@H](CCCCC)C(=O)N2CCC[C@H]2C(=O)N[C@@H](C(C)C)C(=O)N[C@@H](CC(C)C)C(=O)N[C@H](C(=O)NCC(=O)O)CSCC(=O)N[C@@H](Cc2ccccc2)C(=O)N[C@@H](Cc2ccc(O)cc2)C(=O)N[C@@H](CC(=O)O)C1=O [Example 1025] ({CH2CO}-FYD[NHexGly]Y[Nle]DRL[Ahp(2)]PVLCG-OH; thioether N-14) | 7.51
CCCCCCN1CC(=O)N[C@@H](Cc2ccc(O)cc2)C(=O)N[C@@H](CCCCC)C(=O)N[C@@H](CC(N)=O)C(=O)N[C@@H](CCCNC(=N)N)C(=O)N[C@@H](CC(C)C)C(=O)N[C@@H](CCCCC)C(=O)N2CCC[C@H]2C(=O)N[C@@H](C(C)C)C(=O)N[C@@H](CC(N)=O)C(=O)N[C@H](C(=O)NCC(=O)O)CSCC(=O)N[C@@H](Cc2ccccc2)C(=O)N[C@@H](Cc2ccc(O)cc2)C(=O)N[C@@H](CC(=O)O)C1=O [Example 1026] ({CH2CO}-FYD[NHexGly]Y[Ahp(2)]NRL[Ahp(2)]PVNCG-OH; thioether N-14) | 8.26
CCCCCCN1CC(=O)N[C@@H](Cc2ccc(O)cc2)C(=O)N[C@@H](CC(C)C)C(=O)N[C@@H](CC(N)=O)C(=O)N[C@@H](CCCNC(=N)N)C(=O)N[C@@H](CC(C)C)C(=O)N[C@@H](CCCCC)C(=O)N2CCC[C@H]2C(=O)N[C@@H](C(C)C)C(=O)N[C@@H](CC(N)=O)C(=O)N[C@H](C(=O)NCC(N)=O)CSCC(=O)N[C@@H](Cc2ccccc2)C(=O)N[C@@H](Cc2ccc(O)cc2)C(=O)N[C@@H](CC(=O)O)C1=O [Example 1027] ({CH2CO}-FYD[NHexGly]YLNRL[Ahp(2)]PVNCG-NH2; thioether N-14) | 7.43
CCCCCCN1CC(=O)N[C@@H](Cc2ccc(O)cc2)C(=O)N[C@@H](CCCC)C(=O)NCC(=O)N[C@@H](CCCNC(=N)N)C(=O)N[C@@H](CC(C)C)C(=O)N[C@@H](CCCCC)C(=O)N2CCC[C@H]2C(=O)N[C@@H](C(C)C)C(=O)N[C@@H](CC(N)=O)C(=O)N[C@H](C(=O)NCC(=O)O)CSCC(=O)N[C@@H](Cc2ccccc2)C(=O)N[C@@H](Cc2ccc(O)cc2)C(=O)N[C@@H](CC(=O)O)C1=O [Example 1028] ({CH2CO}-FYD[NHexGly]Y[Nle]GRL[Ahp(2)]PVNCG-OH; thioether N-14) | 8.28
CCCCCCN1CC(=O)N[C@@H](Cc2ccc(O)cc2)C(=O)N[C@@H](CCCC)C(=O)N[C@@H](CC(=O)O)C(=O)N[C@@H](CCCNC(=N)N)C(=O)N[C@@H](CC(C)C)C(=O)N[C@@H](CCCCC)C(=O)N2CCC[C@H]2C(=O)N[C@@H](C(C)C)C(=O)N[C@@H](CC(N)=O)C(=O)N[C@H](C(=O)NCC(=O)O)CSCC(=O)N[C@@H](Cc2ccccc2)C(=O)N[C@@H](Cc2ccc(O)cc2)C(=O)N[C@@H](CC(=O)O)C1=O [Example 1029] ({CH2CO}-FYD[NHexGly]Y[Nle]DRL[Ahp(2)]PVNCG-OH; thioether N-14) | 8.96
